Source: ChEMBL document CHEMBL1149293, “Identification of 7-phenylaminothieno- [3,2-b]pyridine-6-carbonitriles as a new class of Src kinase inhibitors” (J Med Chem, 2004)

Biological target: Proto-oncogene tyrosine-protein kinase Src (Homo sapiens, UniProt P12931)
Experiment: Inhibition of Src kinase

Proto-oncogene tyrosine-protein kinase Src, sequence (P12931 2-536 limits assumed): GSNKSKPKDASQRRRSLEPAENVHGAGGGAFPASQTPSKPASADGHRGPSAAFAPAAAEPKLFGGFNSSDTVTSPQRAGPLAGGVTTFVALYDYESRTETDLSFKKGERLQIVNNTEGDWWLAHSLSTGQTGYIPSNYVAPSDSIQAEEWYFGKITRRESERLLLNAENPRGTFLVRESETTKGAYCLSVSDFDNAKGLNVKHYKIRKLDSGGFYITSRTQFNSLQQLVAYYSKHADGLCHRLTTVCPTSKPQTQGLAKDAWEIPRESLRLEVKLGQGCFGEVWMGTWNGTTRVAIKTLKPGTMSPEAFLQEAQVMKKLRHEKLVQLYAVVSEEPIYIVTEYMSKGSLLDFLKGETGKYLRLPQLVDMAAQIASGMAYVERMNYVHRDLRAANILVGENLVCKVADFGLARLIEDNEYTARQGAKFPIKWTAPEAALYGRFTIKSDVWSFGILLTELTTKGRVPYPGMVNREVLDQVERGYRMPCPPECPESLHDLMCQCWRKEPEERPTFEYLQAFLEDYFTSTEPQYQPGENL

How did the IC50 turn out when `COc1cc(Nc2c(C#N)cnc3c(-c4ccc(CN5CCOCC5)cc4)csc23)c(Cl)cc1Cl` was run?
Its IC50 is greater than 10 µM.

For `COc1cc(Nc2c(C#N)cnc3cc(-c4ccccc4N4CCN(C)CC4)sc23)c(Cl)cc1Cl`, which IC50 is on record?
Its IC50 is greater than 10 µM.
